The source of these data is patent US20260015358A1, “BICYCLIC DERIVATIVES, COMPOSITIONS AND USES THEREOF” (Danatlas Pharmaceuticals Co., Ltd., priority 2023, published 2026).

The target in test [1] is T1, WRN [UniPro: Q14191 (WRN_HUMAN), N500-C946] (Homo sapiens (Human), UniProt Q14191). Put plainly: WRN ATPase assay (ADP-Glo). The format is biochemical. The conditions noted are these: WRN enzymatic activity assay. On the procedure:
WRN ATPase assay was initiated to evaluate potential inhibitory effect of compounds for ATP hydrolysis activity of WRN protein. WRN [UniPro: Q14191 (WRN_HUMAN), N500-C946] was expressed and purified in insect system and stored at −80° C. in aliquots. […] ADP quantity produced from ATP hydrolysis by WRN catalytic reaction was measured using a commercially available ADP-Glo Assay (ADP-Glo™ Kinase Assay from Promega, 10000 assays, #V9102). […] Compounds dissolved in DMSO (Sigma, D8418) were plated into a 96-well intermediate plate (BioFil, VWP-032-096) for 3-fold serial titration for 10 points using DMSO, and well-to-well transfer the titrated compounds into another 96-well intermediate plate including assay buffer in advance. Shake the 96-well intermediate plate at 600 rpm for 10 min to fully mix. Specifically, a 4× working mixture of WRN was diluted to a concentration of 8 nM in assay buffer. […] After centrifuging at 1000 rpm and shaking at 500 rpm, the assay plate was pre-incubated for 30 min. Then, 5 μL 2×FORKF DNA and ATP working mixture was dispensed into assay plate. Plate was sealed, centrifuged and incubated for an additional 40 min. at 37° C. The reaction was stopped with the addition of 10 μL of the first ADP-Glo reagent and incubated for 40 min. to remove the excess amount of ATP. Afterwards, 20 μL of ATP detection reagent was added and incubated for 30 min. before reading. Luminescence output was recorded using BMG CLARIO star plus reader. Each concentration of compound was tested in duplicates in the assay plate. Average luminescence signal of high control (Wells with 1% DMSO) was calculated as High Control (HC). Average luminescence signal of low control (Wells with no WRN protein) was calculated as Low control (LC).
(§1) IC50 values were determined by fitting the data to the standard 4 parameters with Hill Slope using GraphPad Prism software.
For orientation: ADP-Glo first removes unused ATP, then detects ADP through luciferase.

Test [2] concerns the target T1, WRN [UniPro: Q14191 (WRN_HUMAN), N500-C946]. The test can be described thus: WRN unwinding assay (FORKF DNA, fluorescence). It is filed as biochemical. As to conditions: Table 14. On the procedure:
WRN unwinding assay was initiated to evaluate potential inhibitory effect of compounds for WEN helicase activity. WRN [UniPro: Q14191 (WRN_HUMAN), N500-C946] was expressed and purified in insect system and stored at −80° C. in aliquots. […] Compounds dissolved in DMSO (Sigma, D8418) were plated into a 96-well intermediate plate (BioFil, VWP-032-096) for 3-fold serial titration for 10 points using DMSO, and well-to-well transfer the titrated compounds into another 96-well intermediate plate including assay buffer in advance. Shake the 96-well intermediate plate at 600 rpm for 10 min. to fully mix. Specifically, a 3× working mixture of WRN was diluted to a concentration of 60 nM in assay buffer. […] After centrifuging at 1000 rpm and shaking at 500 rpm, the assay plate was pre-incubated for 30 min. Then, […] 3×FORKF DNA and ATP working mixture was dispensed into assay plate. Plate was sealed, centrifuged and incubated for an additional 40 min. at 25° C. […] Each concentration of compound was tested in duplicates in the assay plate. Average fluorescence signal of high control (Wells with 1% DMSO) was calculated as High Control (HC). Average fluorescence signal of low control (Wells with no WRN protein) was calculated as Low control (LC).
as §1

pIC50: −log10 of the molar value.

T1 sequence (Q14191 500-946): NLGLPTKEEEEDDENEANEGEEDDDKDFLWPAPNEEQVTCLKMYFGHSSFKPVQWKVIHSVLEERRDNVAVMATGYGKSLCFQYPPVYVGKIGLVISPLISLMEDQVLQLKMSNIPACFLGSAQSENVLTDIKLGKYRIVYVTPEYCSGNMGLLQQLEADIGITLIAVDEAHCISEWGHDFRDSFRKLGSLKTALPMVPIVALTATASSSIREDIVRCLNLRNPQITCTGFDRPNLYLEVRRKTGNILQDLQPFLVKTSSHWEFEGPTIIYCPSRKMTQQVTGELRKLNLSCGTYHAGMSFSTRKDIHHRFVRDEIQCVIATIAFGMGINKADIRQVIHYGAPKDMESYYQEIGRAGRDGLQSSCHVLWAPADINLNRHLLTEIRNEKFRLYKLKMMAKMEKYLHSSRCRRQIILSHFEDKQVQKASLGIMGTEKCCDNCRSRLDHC

Consider `CCc1c(N2CCN(C(=O)C(=O)Nc3ccncn3)CC2)c(=O)n2nc(C3=CCOCC3)nc2n1CC(=O)Nc1ccc(C(F)(F)F)cc1F` [Example 340, 2-(4-(2-(3,6-Dihydro-2H-pyran-4-yl)-5-ethyl-4-(2-((2-fluoro-4-(trifluoromethyl)phenyl)amino)-2-oxoethyl)-7-oxo-4,7-dihydro-[1,2,4]triazolo[1,5-a]pyrimidin-6-yl)piperazin-1-yl)-2-oxo-N-(pyrimidin-4-yl)acetamide], for which the pIC50 in test [1] and in test [2] was 6.00 to 7.00 each time. Regarding `CCc1c(N2CCN(C(=O)C(=O)Nc3nccs3)CC2)c(=O)n2nc(N3CCn4cncc4C3)nc2n1CC(=O)Nc1ccc(C(F)(F)F)cc1F` [Example 261, 2-(4-(2-(5,6-Dihydroimidazo[1,5-a]pyrazin-7 (8H)-yl)-5-ethyl-4-(2-((2-fluoro-4-(trifluoromethyl)phenyl)amino)-2-oxoethyl)-7-oxo-4,7-dihydro-[1,2,4]triazolo[1,5-a]pyrimidin-6-yl)piperazin-1-yl)-2-oxo-N-(thiazol-2-yl)acetamide], the pIC50 in test [1] and in test [2] was above 7.00 throughout. Consider `CCc1c(N2CCN(C(=O)CNC(=O)c3cncc(O)c3)CC2)c(=O)n2nc(C3=CCOCC3)nc2n1CC(=O)Nc1ccc(C(F)(F)F)cc1Cl` [Example 281, N-(2-(4-(4-(2-((2-Chloro-4-(trifluoromethyl)phenyl)amino)-2-oxoethyl)-2-(3,6-dihydro-2H-pyran-4-yl)-5-ethyl-7-oxo-4,7-dihydro-[1,2,4]triazolo[1,5-a]pyrimidin-6-yl)piperazin-1-yl)-2-oxoethyl)-5-hydroxynicotinamide], for which the pIC50 in test [1] and in test [2] was above 7.00 in each case. For the compound `CCc1c(N2CCN(C(=O)CNC(=O)c3cccc(O)c3)CC2)c(=O)n2nc(C3=CCOCC3)nc2n1CC(=O)Nc1ccc(C(F)(F)F)cc1Cl` [Example 270, N-(2-(4-(4-(2-((2-Chloro-4-(trifluoromethyl)phenyl)amino)-2-oxoethyl)-2-(3,6-dihydro-2H-pyran-4-yl)-5-ethyl-7-oxo-4,7-dihydro-[1,2,4]triazolo[1,5-a]pyrimidin-6-yl)piperazin-1-yl)-2-oxoethyl)-3-hydroxybenzamide], the pIC50 in test [1] and in test [2] was above 7.00 in each case. Consider `CCc1c(N2CCN(C(=O)C(=O)Nc3cc(C)ns3)CC2)c(=O)n2nc(C3=CCOCC3)nc2n1CC(=O)Nc1ccc(C(F)(F)F)cc1F` [Example 325, 2-(4-(2-(3,6-Dihydro-2H-pyran-4-yl)-5-ethyl-4-(2-((2-fluoro-4-(trifluoromethyl)phenyl)amino)-2-oxoethyl)-7-oxo-4,7-dihydro-[1,2,4]triazolo[1,5-a]pyrimidin-6-yl)piperazin-1-yl)-N-(3-methylisothiazol-5-yl)-2-oxoacetamide], for which the pIC50 in test [1] and in test [2] was above 7.00 each time.

Turning to `CCc1c(N2CCN(C(=O)CNC(=O)c3ccccc3F)CC2)c(=O)n2nc(C3=CCOCC3)cc2n1CC(=O)Nc1ccc(C(F)(F)F)cc1Cl` [Example 343, N-(2-(4-(4-(2-((2-Chloro-4-(trifluoromethyl)phenyl)amino)-2-oxoethyl)-2-(3,6-dihydro-2H-pyran-4-yl)-5-ethyl-7-oxo-4,7-dihydropyrazolo[1,5-a]pyrimidin-6-yl)piperazin-1-yl)-2-oxoethyl)-2-fluorobenzamide], the pIC50 in test [1] and in test [2] was above 7.00 in each case. In the case of `CCc1c(N2CCN(C(=O)CN(C)C(=O)c3ccccc3)CC2)c(=O)n2nc(C3=CCOCC3)nc2n1CC(=O)Nc1ccc(C(F)(F)F)cc1Cl` [Example 135, N-(2-(4-(4-(2-((2-Chloro-4-(trifluoromethyl)phenyl)amino)-2-oxoethyl)-2-(3,6-dihydro-2H-pyran-4-yl)-5-ethyl-7-oxo-4,7-dihydro-[1,2,4]triazolo[1,5-a]pyrimidin-6-yl)piperazin-1-yl)-2-oxoethyl)-N-methylbenzamide], the pIC50 (usually −log10 of the IC50, conventionally taken in molar units) in test [2] was above 7.00. For the compound `CCc1c(N2CCN(C(=O)c3cc4c(OC)ccnc4[nH]3)CC2)c(=O)n2nc(C3=CCOCC3)nc2n1CC(=O)Nc1ccc(C(F)(F)F)cc1Cl` [Example 302, N-(2-Chloro-4-(trifluoromethyl)phenyl)-2-(2-(3,6-dihydro-2H-pyran-4-yl)-5-ethyl-6-(4-(4-methoxy-1H-pyrrolo[2,3-b]pyridine-2-carbonyl)piperazin-1-yl)-7-oxo-[1,2,4]triazolo[1,5-a]pyrimidin-4(7H)-yl)acetamide], the pIC50 in test [2] is 6.00 to 7.00. Same read-out and setting: in the case of `CCc1c(N2CCN(C(=O)c3[nH]c(=O)oc3C(F)(F)F)CC2)c(=O)n2nc(C3=CCOCC3)nc2n1CC(=O)Nc1ccc(C(F)(F)F)cc1Cl` [Example 317, N-(2-Chloro-4-(trifluoromethyl)phenyl)-2-(2-(3,6-dihydro-2H-pyran-4-yl)-5-ethyl-7-oxo-6-(4-(2-oxo-5-(trifluoromethyl)-2,3-dihydrooxazole-4-carbonyl)piperazin-1-yl)-[1,2,4]triazolo[1,5-a]pyrimidin-4(7H)-yl)acetamide] it was 6.00 to 7.00; in that of `CCc1c(N2CCN(C(=O)CNC(=O)c3ccccc3F)CC2)c(=O)n2nc(OCCOC)nc2n1CC(=O)Nc1ccc(C(F)(F)F)cc1Cl` [Example 240, N-(2-(4-(4-(2-((2-Chloro-4-(trifluoromethyl)phenyl)amino)-2-oxoethyl)-5-ethyl-2-(2-methoxyethoxy)-7-oxo-4,7-dihydro-[1,2,4]triazolo[1,5-a]pyrimidin-6-yl)piperazin-1-yl)-2-oxoethyl)-2-fluorobenzamide], below 6.00; in that of `CCc1c(N2CCN(C(=O)/C=C/c3cnccc3O)CC2)c(=O)n2nc(C3=CCOCC3)nc2n1CC(=O)Nc1ccc(C(F)(F)F)cc1F` [Example 328, (E)-2-(2-(3,6-Dihydro-2H-pyran-4-yl)-5-ethyl-6-(4-(3-(4-hydroxypyridin-3-yl)acryloyl)piperazin-1-yl)-7-oxo-[1,2,4]triazolo[1,5-a]pyrimidin-4(7H)-yl)-N-(2-fluoro-4-(trifluoromethyl)phenyl)acetamide], 6.00 to 7.00. With `CCc1c(N2CCN(C(=O)NS(=O)(=O)C3CC3)CC2)c(=O)n2nc(C3=CCOCC3)nc2n1CC(=O)Nc1ccc(C(F)(F)F)cc1Cl` [Example 34, 4-(4-(2-((2-Chloro-4-(trifluoromethyl)phenyl)amino)-2-oxoethyl)-2-(3,6-dihydro-2H-pyran-4-yl)-5-ethyl-7-oxo-4,7-dihydro-[1,2,4]triazolo[1,5-a]pyrimidin-6-yl)-N-(cyclopropylsulfonyl)piperazine-1-carboxamide], in test [2], the pIC50 is 6.00 to 7.00.

Turning to `CCc1c(N2CCN(C(=O)CNC(=O)c3ccccc3F)CC2)c(=O)n2nc(C3=CCOCC3)nc2n1CC(=O)Nc1cc(C)no1` [Example 160, N-(2-(4-(2-(3,6-Dihydro-2H-pyran-4-yl)-5-ethyl-4-(2-((3-methylisoxazol-5-yl)amino)-2-oxoethyl)-7-oxo-4,7-dihydro-[1,2,4]triazolo[1,5-a]pyrimidin-6-yl)piperazin-1-yl)-2-oxoethyl)-2-fluorobenzamide], in test [2], the pIC50 is below 6.00. Compound `CCc1c(N2CCN(C(=O)CNC(=O)c3ccccc3F)CC2)c(=O)n2nc(C3=CCOCC3)nc2n1CC(=O)Nc1sc(C)cc1Cl` [Example 151, N-(2-(4-(4-(2-((3-chloro-5-methylthiophen-2-yl)amino)-2-oxoethyl)-2-(3,6-dihydro-2H-pyran-4-yl)-5-ethyl-7-oxo-4,7-dihydro-[1,2,4]triazolo[1,5-a]pyrimidin-6-yl)piperazin-1-yl)-2-oxoethyl)-2-fluorobenzamide] showed a pIC50 in test [2] of 6.00 to 7.00.
